We go through ten compounds from PubChem BioAssay (NCI).

Some test systems named below: SF-539 CNS; SF-295 CNS; OVCAR-3 ovarian; M14 melanoma; SK-MEL-2 melanoma; A549 NSCLC; HCC-2998 colon; TK-10 renal; U251 CNS; HL-60(TB) leukemia.
Holding throughout (assay): inhibition of tumour cell growth, NCI panel, 48 h

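Exposure lasted 48 hours, with cells grown in 96-well plates and compounds tested at five concentrations. GI50 is the concentration that inhibits growth by half. TGI marks complete inhibition of growth.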

On to `Nc1ccccc1C#C/C=C\C#Cc1ccccc1F`, for which the GI50 is 3.82 µM with SF-539 CNS; 3.9 µM in the test with SF-295 CNS; 2.84 µM in the test on OVCAR-3 ovarian; 5.39 µM with M14 melanoma; 17.3 µM in the test on SK-MEL-2 melanoma; 10 µM in the test on A549 NSCLC. The GI50 in the test on HCC-2998 colon is 2.25 µM; in the test with TK-10 renal, 6.42 µM; in the test on U251 CNS it was 6.44 µM. The TGI came to 15.7 µM in the test on SF-539 CNS; 16.6 µM with SF-295 CNS; 14.7 µM in the test with OVCAR-3 ovarian; 18.3 µM in the test on M14 melanoma; 47.3 µM in the test with SK-MEL-2 melanoma; 95.8 µM in the test with A549 NSCLC. Besides, the values for the TGI with HCC-2998 colon, with TK-10 renal and with U251 CNS were 5.26 µM, 25.6 µM and 20.7 µM, respectively.

For `COC1OC(C(C)O)C2OC(C)(C)OC12` (centres undefined), the TGI in the test with SF-539 CNS, in the test on SF-295 CNS, in the test with OVCAR-3 ovarian, in the test with M14 melanoma, in the test on SK-MEL-2 melanoma and with A549 NSCLC was > 100 µM each time. Besides, the TGI in the test with HL-60(TB) leukemia, in the test on TK-10 renal and with U251 CNS was > 100 µM in each case.

For the compound `O=C(NN1C(=O)CSC12CCC(c1ccccc1)CC2)c1[nH]c2ccc(F)cc2c1-c1ccccc1` (centres undefined), the GI50 is 20.9 µM with SF-539 CNS; 22 µM in the test on SF-295 CNS; 17.1 µM with OVCAR-3 ovarian; 20.1 µM with M14 melanoma; 17.6 µM in the test on SK-MEL-2 melanoma; 15.7 µM in the test on A549 NSCLC. Moreover, the GI50 in the test on HCC-2998 colon is 14.9 µM; in the test with TK-10 renal it was 17.3 µM; in the test on U251 CNS it was 15.6 µM. The TGI in the test on SF-539 CNS was determined as 38.3 µM; in the test on SF-295 CNS it was 41.6 µM; in the test with OVCAR-3 ovarian, 31.5 µM; in the test on M14 melanoma, 35.6 µM; in the test with SK-MEL-2 melanoma, 33.2 µM; in the test on A549 NSCLC, 30.8 µM. Further, the TGI with HCC-2998 colon was 28.3 µM; with TK-10 renal, 31.7 µM; in the test on U251 CNS, 29.9 µM.

For the compound `CC(=O)O[C@H]1CC[C@@]2(C)C(=C/C(=N\[N+](=O)[O-])[C@H]3C4CCC([C@H](C)CCCC(C)C)[C@@]4(C)CCC32)C1` (some centres undefined), the TGI in the test on SF-539 CNS, in the test with SF-295 CNS, in the test on OVCAR-3 ovarian, in the test on M14 melanoma, with SK-MEL-2 melanoma and in the test on A549 NSCLC was > 100 µM throughout. Moreover, the TGI with HL-60(TB) leukemia and in the test with TK-10 renal was > 100 µM throughout.

As for `CC(C)c1cccc(C(C)C)c1NC(=O)C(=O)C1SC(=S)NC1=O` (centres undefined), the TGI in the test with SF-539 CNS, with SF-295 CNS, in the test with M14 melanoma, with SK-MEL-2 melanoma, with A549 NSCLC and with HL-60(TB) leukemia was > 100 µM in each case. In addition, the TGI in the test with TK-10 renal and with U251 CNS was > 100 µM throughout.

With `O=c1[nH]c2c(c3ccccc13)CCc1ccccc1-2`, the TGI with SF-539 CNS, in the test on SF-295 CNS, with OVCAR-3 ovarian, with SK-MEL-2 melanoma, in the test on A549 NSCLC and with HCC-2998 colon was > 100 µM throughout. In addition, the TGI in the test on TK-10 renal and in the test on U251 CNS was > 100 µM each time.

As to `O=C1/C(=C\c2ccccc2)c2ccccc2N1/N=C\c1ccccc1`, the TGI with SF-539 CNS, in the test on SF-295 CNS, in the test with OVCAR-3 ovarian, in the test with M14 melanoma, in the test on SK-MEL-2 melanoma and with A549 NSCLC was > 100 µM in each case. The TGI in the test with HCC-2998 colon, in the test with TK-10 renal and with U251 CNS was > 100 µM in each case.

On to `NS(=O)(=O)c1ccc(N2N=C(c3cccs3)CC2c2ccccc2O)cc1` (centres undefined), for which the GI50 was 0.706 µM in the test with SF-539 CNS; 0.829 µM in the test on SF-295 CNS; 0.933 µM in the test on OVCAR-3 ovarian; 1.07 µM in the test on M14 melanoma; 1.2 µM in the test with SK-MEL-2 melanoma; 1.16 µM in the test with A549 NSCLC. Further, the GI50 in the test on HCC-2998 colon is 1.33 µM; with TK-10 renal it was 1.09 µM; in the test on U251 CNS it was 0.998 µM. For the same compound, the TGI amounted to 1.76 µM in the test on SF-539 CNS; 2.26 µM with SF-295 CNS; 2.64 µM in the test with OVCAR-3 ovarian; 4.1 µM with M14 melanoma; 5.16 µM in the test on SK-MEL-2 melanoma; 7.06 µM in the test on A549 NSCLC. In addition, the TGI with HCC-2998 colon was 5.12 µM; in the test on TK-10 renal, 5.47 µM; in the test on U251 CNS, 3.73 µM.

On to `NS(=O)(=O)c1ccc(NC(=O)c2cccc3c(Nc4ccc(S(N)(=O)=O)cc4)c4ccccc4nc23)cc1`, for which the TGI was > 100 µM in the test on SF-539 CNS; > 100 µM with SF-295 CNS; 35.2 µM with OVCAR-3 ovarian; > 100 µM in the test on M14 melanoma; 82.3 µM in the test with SK-MEL-2 melanoma; > 100 µM with A549 NSCLC. Moreover, the TGI with HL-60(TB) leukemia was 96.8 µM; in the test with TK-10 renal it was > 100 µM; in the test with U251 CNS, > 100 µM.

As to `Cc1cc(C)nc(NS(=O)(=O)c2ccc(NC(=O)c3cccc4c(N)c5ccccc5nc34)cc2)n1`, the TGI with SF-539 CNS, in the test on SF-295 CNS, in the test on OVCAR-3 ovarian, with M14 melanoma, in the test on SK-MEL-2 melanoma and in the test on A549 NSCLC was > 100 µM throughout. Further, the TGI with HCC-2998 colon, with TK-10 renal and in the test on U251 CNS was > 100 µM in each case.
